Experimental findings from patent publication US9708321B2, “Spiro-quinazolinone derivatives and their use as positive allosteric modulators of mGluR4” (Merck Patent GmbH, priority 2013, dated 2017) are described below.

For the assay, the target named is T1, hmGluR4 (Homo sapiens, UniProt Q14833).
T1 construct: host or cells: HEK293T
T1 sequence (Q14833 33-912): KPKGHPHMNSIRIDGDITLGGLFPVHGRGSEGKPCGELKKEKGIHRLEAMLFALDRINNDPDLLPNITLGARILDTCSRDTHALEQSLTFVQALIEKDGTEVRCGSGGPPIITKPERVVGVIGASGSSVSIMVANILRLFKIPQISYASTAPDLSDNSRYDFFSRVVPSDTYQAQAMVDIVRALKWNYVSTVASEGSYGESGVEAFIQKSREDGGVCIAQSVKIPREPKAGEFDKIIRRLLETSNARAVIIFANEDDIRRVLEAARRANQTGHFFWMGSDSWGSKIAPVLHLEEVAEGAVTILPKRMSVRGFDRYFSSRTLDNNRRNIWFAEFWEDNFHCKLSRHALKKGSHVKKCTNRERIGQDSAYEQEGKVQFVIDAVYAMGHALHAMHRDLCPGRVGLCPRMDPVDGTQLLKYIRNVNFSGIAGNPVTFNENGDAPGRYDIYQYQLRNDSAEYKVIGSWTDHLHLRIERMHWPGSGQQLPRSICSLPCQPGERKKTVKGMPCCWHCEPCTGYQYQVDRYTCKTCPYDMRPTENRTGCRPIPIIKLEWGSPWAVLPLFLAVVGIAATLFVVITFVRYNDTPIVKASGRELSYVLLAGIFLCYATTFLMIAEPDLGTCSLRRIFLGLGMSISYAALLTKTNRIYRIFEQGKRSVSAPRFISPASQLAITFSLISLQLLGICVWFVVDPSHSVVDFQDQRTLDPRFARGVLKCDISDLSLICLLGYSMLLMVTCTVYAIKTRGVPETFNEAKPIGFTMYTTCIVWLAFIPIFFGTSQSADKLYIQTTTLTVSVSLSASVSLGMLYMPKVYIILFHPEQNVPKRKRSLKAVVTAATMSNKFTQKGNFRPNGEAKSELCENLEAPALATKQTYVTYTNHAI
In words: HEK-293 mGluR4 cells cAMP assay with EC20 L-Glutamate (HTRF). It counts as cell-based. As to conditions: positive allosteric activity at EC20 L-Glutamate, 10 μM Forskolin, HEK293T mGluR4 cells, cAMP HTRF; read-out: hrmGluR4/HEK293T-hmGluR4 (EC50). As to the method: II. Biological Assays HEK-293 mGluR4 Cells cAMP Assay with EC20 L-Glutamate
Using mGluR4 suspension cell format, 10 μM Forskolin (final conc.) used to induce the production of cAMP.
Test the positive allosteric activity of the compounds of the invention at EC20 (2.3 μM for mGluR4 and 4.3 μM for mGluR6) L-Glutamate,
cAMP dymanic2 kit is intended for the direct quantitative determination of cAMP and its principle is based on HTRF technology.
• Cells: HEK293T mGluR4 cells from Multispan, cat# C1191a lot# C1191a-040910 • Culture Media: DMEM+GlutaMAX1+10% dialyzed FBS, 100 mM Sodium Pyruvate, 1 ug/ml puromycin. • Glutamine Starvation Media: DMEM without GlutaMax for plating the cells (glutamine starvation overnight). DMEM high Glucose, without phenol red, glutamine, or sodium pyruvate+10% dialyzed FBS, 100 mM Sodium Pyruvate, 1 ug/ml puromycin, 10 mM Hepes. • Hanks' balanced Salt Solution, HBSS from Invitrogen • Greiner 384 well white low volume high base plate (784075) • cAMP dynamic2 from Cisbio Bioassays • Glutamate: L-Glutamaic acid, monosodium salt, Monohydrate, 98%, from Sigma-Aldrich • Cell Preparation: split cells at 80%-90% confluence. The following day, rinse the cells with DMEM without GlutaMax and change to Glutamine Starvation Media. Incubate overnight. Assay: • Prepare compound plate: Perform compound serial dilution (uses Matrix 4341 plate), using the Bravo liquid handling platform protocol (compound serial dilution) which adds DMSO to columns 1-24 (except cols. 3 and 13). Serial dilute compounds located in columns 3 and 13 at a 1:3 ratio; 10 points (10 ul of 3 mM compound into 20 ul DMSO). Use the Bravo liquid handling platform to transfer 1 ul from the serial dilution plate into Matrix 4314 plate to create stamp plates. Prepare Compound Dilution Buffer: • Dilute 20 mM Forskolin (in DMSO) stock solution in HBSS buffer to make a 20 uM solution (forskolin buffer; 2× solution). To the forskolin buffer, add glutamate to a concentration of 8 uM (compound dilution buffer; 2× EC20 glutamate and forskolin). • Using a multidrop, add 50 ul/well of compound dilution buffer to columns 1-22 of the 2 ul compound stamp plate. Columns 23 and 24 receive forskolin buffer containing 400 uM glutamate (EC100 glutamate; 2× solution). Columns 1 and 2 receive compound dilution buffer containing EC20 glutamate, which is the basal control. • Add a glutamate dose response to row P of compound plate. Prepare the dose response by serial diluting glutamate at a 1:3 ratio in forskolin buffer starting at 2 mM glutamate (2×). Dilute the glutamate 9 times and transfer to compound plate. Prepare Cell Plates: • Harvest cells: Rinse cells with pre-warmed HBSS-10 mM HEPES (without Ca Mg) and dissociate the cells from the flask with versene. Centrifuge the cells, remove the supernatant and suspend in pre-warmed HBSS+10 mM Hepes. Count the cells and centrifuge. Remove the supernatant and suspend the cells in HBSS+Hepes (with Ca Mg) at a density of 400,000 cells/ml. Perform Assay: • Dispense 5 ul from the diluted compound plate into Greiner low volume cell plate using the Bravo liquid handling platform. Using a Multidrop with the small tubing cassette, dispense 5 ul of cells (2000 cells/well) onto the compounds contained in the low volume plates. Incubate the cells at 37° C., 5% CO2 for 30 minutes in the incubator. Assay for cAMP: • Prepare cAMP-d2 and anti-cAMP-Crytate according to the instructions for the two step assay (see Cisbio manual) and add 10 ul of the mixed reagent to each well of the assay plate using the Multidrop. Incubate at room temperature for 60 minutes and read on the Envision plate reader using the mGluR low volume cAMP HTRF 384 well protocol.
In the case of `COc1cccc(N2C(=O)c3ccccc3NC23CCN(Cc2cc(Cl)ccc2Cl)CC3)c1` [Compound 115, 1-(2,5-Dichlorobenzyl)-3′-(3-methoxyphenyl)-1′H-spiro[piperidine-4,2′-quinazolin]-4′(3′H)-one], the EC50 lay within 1000 to 10000 nM.

Take `COc1ccc(N2C(=O)c3ccc(OC)cc3NC23CCN(Cc2ccc(Cl)s2)CC3)cc1` [Compound 59, 1-((5-Chlorothiophen-2-yl)methyl)-7′-methoxy-3′-(4-methoxyphenyl)-1′H-spiro[piperidine-4,2′-quinazolin]-4′(3′H)-one]: the EC50 was less than 1000 nM.

Regarding `CSc1ccc(N2C(=O)c3ccc(-c4ccco4)cc3NC23CCN(Cc2ccc(F)c(F)c2)CC3)cc1` [Compound 41, 1-(3,4-Difluorobenzyl)-7′-(furan-2-yl)-3′-(4-(methylthio)phenyl)-1′H-spiro[piperidine-4,2′-quinazolin]-4′(3′H)-one], the EC50 is less than 1000 nM.

`CC(c1ccccc1)N1CCC2(CC1)Nc1cc(Br)ccc1C(=O)N2c1ccc(Cl)cc1` (stereo not shown) [Compound 26, 7′-Bromo-3′-(4-chlorophenyl)-1-(1-phenylethyl)-1′H-spiro[piperidine-4,2′-quinazolin]-4′(3′H)-one]: the EC50 is less than 1000 nM.

For `CCC(c1ccccc1)N1CCC2(CC1)Nc1cc(Br)ccc1C(=O)N2c1ccc(Cl)cc1` (stereo not shown) [Compound 61, 7′-Bromo-3′-(4-chlorophenyl)-1-(1-phenylpropyl)-1′H-spiro[piperidine-4,2′-quinazolin]-4′(3′H)-one], the EC50 is less than 1000 nM.

As to `COc1ccc(N2C(=O)c3ccccc3NC23CCN(Cc2ccccc2C(F)(F)F)CC3)cc1` [Compound 66, 3′-(4-Methoxyphenyl)-1-(2-(trifluoromethyl)benzyl)-1′H-spiro[piperidine-4,2′-quinazolin]-4′(3′H)-one], the EC50 fell in the range of 1000 to 10000 nM.

As for `COc1ccc(N2C(=O)c3ccccc3NC23CN(Cc2ccc(F)cc2)C3)cc1` [Compound 101, 1-(4-Fluorobenzyl)-3′-(4-methoxyphenyl)-1′H-spiro[azetidine-3,2′-quinazolin]-4′(3′H)-one], the EC50 was in the range of 1000 to 10000 nM.

On to `COc1ccc(N2C(=O)c3ccc(Cl)cc3NC23CCN(Cc2cccc(Cl)c2)CC3)cc1` [Compound 38, 7′-Chloro-1-(3-chlorobenzyl)-3′-(4-methoxyphenyl)-1′H-spiro[piperidine-4,2′-quinazolin]-4′(3′H)-one], for which the EC50 was less than 1000 nM.

As to `COC(=O)c1ccc2c(c1)NC1(CCN(Cc3ccc(F)c(F)c3)CC1)N(c1ccc(OC)cc1)C2=O` [Compound 4, Methyl 1-(3,4-difluorobenzyl)-3′-(4-methoxyphenyl)-4′-oxo-3′,4′-dihydro-1′H-spiro[piperidine-4,2′-quinazoline]-7′-carboxylate], the EC50 is less than 1000 nM.

Turning to `COc1ccc(N2C(=O)c3ccccc3NC23CN(Cc2ccccc2C(F)(F)F)C3)cc1` [Compound 81, 3′-(4-Methoxyphenyl)-1-(2-(trifluoromethyl)benzyl)-1′H-spiro[azetidine-3,2′-quinazolin]-4′(3′H)-one], the EC50 lay in the range of 1000 to 10000 nM.

With `COc1ccc(N2C(=O)c3ccc(Cl)cc3NC23CCN(Cc2ccccc2Cl)CC3)cc1` [Compound 62, 7′-Chloro-1-(2-chlorobenzyl)-3′-(4-methoxyphenyl)-1′H-spiro[piperidine-4,2′-quinazolin]-4′(3′H)-one], the EC50 was less than 1000 nM.

As to `COc1ccc(N2C(=O)c3ccc(OC)cc3NC23CCN(Cc2ccc(F)c(F)c2)CC3)cc1` [Compound 39, 1-(3,4-Difluorobenzyl)-7′-methoxy-3′-(4-methoxyphenyl)-1′H-spiro[piperidine-4,2′-quinazolin]-4′(3′H)-one], the EC50 is less than 1000 nM.

Take `COCCOc1ccc2c(c1)NC1(CCN(Cc3ccc(F)c(F)c3)CC1)N(c1ccc(OC(F)(F)F)cc1)C2=O` [Compound 121, 1-(3,4-Difluorobenzyl)-7′-(2-methoxyethoxy)-3′-(4-(trifluoromethoxy)phenyl)-1′H-spiro[piperidine-4,2′-quinazolin]-4′(3′H)-one]: the EC50 lay within 1000 to 10000 nM.

Take `O=C1c2ccc(F)cc2NC2(CCN(Cc3ccc(F)c(F)c3)CC2)N1c1ccc(Br)cc1` [Compound 51, 3′-(4-Bromophenyl)-1-(3,4-difluorobenzyl)-7′-fluoro-1′H-spiro[piperidine-4,2′-quinazolin]-4′(3′H)-one]: the EC50 was less than 1000 nM.

Take `COc1ccc(N2C(=O)c3ccccc3NC23CCC(Nc2ccccc2)CC3)cc1` (stereo not shown) [Compound 44, 3′-(4-Methoxyphenyl)-4-(phenylamino)-1′H-spiro[cyclohexane-1,2′-quinazolin]-4′(3′H)-one]: the EC50 is less than 1000 nM.

In the case of `O=C1c2ccc(-c3ccco3)cc2NC2(CCN(Cc3ccc(F)c(F)c3)CC2)N1c1ccc(OC(F)(F)F)cc1` [Compound 6, 1-(3,4-Difluorobenzyl)-7′-(furan-2-yl)-3′-(4-(trifluoromethoxy)phenyl)-1′H-spiro[piperidine-4,2′-quinazolin]-4′(3′H)-one], the EC50 was less than 1000 nM.

Regarding `O=C1c2ccc(Br)cc2NC2(CCN(Cc3cccc4cnccc34)CC2)N1c1ccc(OC(F)(F)F)cc1` [Compound 27, 7′-Bromo-1-(isoquinolin-5-ylmethyl)-3′-(4-(trifluoromethoxy)phenyl)-1′H-spiro[piperidine-4,2′-quinazolin]-4′(3′H)-one], the EC50 was less than 1000 nM.

With `O=C1c2ccc(Br)cc2NC2(CCN(Cc3ccnc4ccccc34)CC2)N1c1ccc(OC(F)(F)F)cc1` [Compound 47, 7′-Bromo-1-(quinolin-4-ylmethyl)-3′-(4-(trifluoromethoxy)phenyl)-1′H-spiro[piperidine-4,2′-quinazolin]-4′(3′H)-on], the EC50 is less than 1000 nM.

Regarding `COc1ccc(N2C(=O)c3ccccc3NC23CCN(Cc2cccc(OC(F)(F)F)c2)CC3)cc1` [Compound 55, 3′-(4-Methoxyphenyl)-1-(3-(trifluoromethoxy)benzyl)-1′H-spiro[piperidine-4,2′-quinazolin]-4′(3′H)-one], the EC50 was less than 1000 nM.

`COc1ccc(N2C(=O)c3ccccc3NC23CN(Cc2ccccc2)C3)cc1` [Compound 92, 1-Benzyl-3′-(4-methoxyphenyl)-1′H-spiro[azetidine-3,2′-quinazolin]-4′(3′H)-one]: the EC50 was 1000 to 10000 nM.

Regarding `CCC(c1ccc(F)c(F)c1)N1CCC2(CC1)Nc1cc(Br)ccc1C(=O)N2c1ccc(Cl)cc1` (stereo not shown) [Compound 33, 7′-Bromo-3′-(4-chlorophenyl)-1-(1-(3,4-difluorophenyl)propyl)-1′H-spiro[piperidine-4,2′-quinazolin]-4′(3′H)-one], the EC50 is less than 1000 nM.

For the molecule `COc1ccc(N2C(=O)c3ccccc3NC23CN(Cc2ccccc2F)C3)cc1` [Compound 84, 1-(2-Fluorobenzyl)-3′-(4-methoxyphenyl)-1′H-spiro[azetidine-3,2′-quinazolin]-4′(3′H)-one], the EC50 fell in the range of 1000 to 10000 nM.

For the molecule `COc1ccc(N2C(=O)c3ccc(-c4ccccc4)cc3NC23CCN(Cc2ccc(F)c(F)c2)CC3)cc1` [Compound 19, 1-(3,4-Difluorobenzyl)-3′-(4-methoxyphenyl)-7′-phenyl-1′H-spiro[piperidine-4,2′-quinazolin]-4′(3′H)-one], the EC50 was less than 1000 nM.

For `O=C(Nc1ccc(OC(F)(F)F)cc1)c1ccc(Br)cc1O` [Compound 125, 4-Bromo-2-hydroxy-N-(4-trifluoromethoxy-phenyl)-benzamide], the EC50 is less than 1000 nM.

Turning to `COc1ccc(N2C(=O)c3ccccc3NC23CCC(NC(=O)OC(C)(C)C)CC3)cc1` (stereo not shown) [Compound 88, tert-Butyl (3′-(4-methoxyphenyl)-4′-oxo-3′,4′-dihydro-1′H-spiro[cyclohexane-1,2′-quinazolin]-4-yl)carbamate], the EC50 fell in the range of 1000 to 10000 nM.
